How the values were obtained:
LDL [1] = test: Inhibition of Cu2+-catalyzed LDL oxidation in vitro; format: biochemical, porcine; settings: 5 μM Cu2+, 2 hours at 37° C.; for IC50: fluorescence 430 nm, read-out: IC50 (50% inhibition of LDL oxidation)
Method: 6) Inhibition of Cu^2+ -catalyzed LDL oxidation in vitro LDL was isolated from porcine plasma which contained EDTA (1 mg/ml) by ultracentrifugation in salt solutions of NaCl/NaBr between the densities 1.019 and 1.063 g/ml (cf. R. J. Havel et al., J. Clin. Invest. 43, 1345 (1955)). LDL was then dialyzed against phosphate-buffered saline (160 mM NaCl, 10 mM NaH2 PO4), pH 7.4 and stored under nitrogen at 4° C. Before the oxidation process, the LDL fractions were diluted to a final protein concentration of 0.1 mg/ml using phosphate-buffered saline and 2.5 ml aliquot parts were pre-incubated under nitrogen with the test compounds (25 μl of ethanolic solution) for 1 hour at 37° C. (cf. McLean et al., Biochemistry 1989, 28, 321). For the Cu^2+ -catalyzed oxidation of LDL, 12.5 μl of a 1 mM CuSO4 solution were added to each sample, a 5 μM Cu^2+ concentration resulting. The incubation was carried out for 2 hours at 37° C. and in an air atmosphere. The fluorescence intensity was measured at 430 nm (excitation wavelength 365 nm) (cf. Steinbrecher, U. P., J. Biol. Chem. 1987, 262, 3603). […] In addition, the inhibition using a 10^-5 N concentration of the test compound is indicated in %.

LDL [2] = settings: cited from earlier work
serum lipoproteins = test: Action on serum lipoproteins and other metabolic parameters of male rats in the subchronic test; format: in vivo; settings: rat
Method: 3) Action on serum lipoproteins and other metabolic parameters of male rats in the subchronic test
Groups of male rats of the strain HOE: WISKf (SPF 71) having a starting weight of above 180 g received the test preparations daily in the morning (sodium salts of the dihydroxycarboxylic acids of the formula II) in polyethylene glycol 400 by stomach tube; the respective control group received only the vehicle. The last (7th) administration was carried out 24 hours before taking blood and sacrificing. There was free access to food and water during the experiment. 24 hours before taking blood, which wall carried out retroorbitally under slight ether anesthesia before and after the treatment period (i.e. on the 1st and 8th day), the food was withdrawn. Total cholesterol was determined in the serum of each individual animal [CHODPAP high performance method of Boehringer Mannheim], and, as a measure of the triglycerides, total glycerol was also determined analytically from the serum pool of all the animals of one group [GPO-PAP high performance method, Boehringer Mannheim].
Immediately after taking blood, the animals were sacrificed by dislocation of the spine, and the relative liver weight, the change in body weight and the food consumption were determined.
For the analysis of the serum lipoproteins, the serum of all the rats of one group was pooled. The serum lipoproteins were separated using the preparative ultracentrifuge.
The following conditions were used for the separation of the fractions VLDL, LDL and HDL:
The determination of the protein was carried out by the method of Lowry et al. [LOWRY O. H., ROSEBOROUGH, N.J., PARR, A. L. and RANDELL, R. J.: J. Biol. Chem. 193, 265 (1951)].

HEP G2 cells = test: Inhibition of cholesterol biosynthesis in cell cultures (HEP G2 cells), incorporation of 14C-sodium acetate in cholesterol; format: cell-based; settings: for IC50 / IC70: Homo sapiens, HepG2, sodium salts, test compounds corrected by deviation of mevinolin sodium from its mean value; for IC50: read-out: IC50 (concentration necessary for a 50% inhibition); for IC70: read-out: IC70 (concentration necessary for a 70% inhibition); for Relative potency in % / Relative potency in % (value in parentheses): mevinolin sodium = 100; for Relative potency in %: from IC50; for Relative potency in % (value in parentheses): corresponds to IC70
Method: 2) Inhibition of cholesterol biosynthesis in cell cultures (EEP G2 cells)
Determination of the inhibition of the incorporation of ^14 C-sodium acetate in cholesterol
Monolayers of HEP G2 cells in lipoprotein-free medium were preincubated with various concentrations of the sodium salts of the dihydroxycarboxylic acids of the formula II for 1 hour. After adding ^14 C-labeled sodium acetate, the incubation was continued for 3 hours. Tritium-labeled cholesterol was added as an internal standard and an aliquot of the cells was subjected to alkaline hydrolysis. The lipids were extracted using chloroform/methanol 2: 1. After adding carrier cholesterol, the lipid mixture was preparatively separated on TLC plates using chloroform/acetone 9: 1. The cholesterol zone was made visible by staining with iodine vapor, additionally detected using a TLC radio scanner and then scraped off. The amount of ^14 C-cholesterol formed was determined scintigraphically and related to mg of cell protein. The same procedure was carried out with cells from the Bame culture without preincubation with a test compound (so-called "solvent control"). The potency of the test compounds was determined by comparison of the biosynthesized ^14 C-cholesterol in test runs and in "solvent control".

serum total cholesterol = test: Hypocholesterolemic activity in rabbits after p.o. administration; format: in vivo, male white New Zealand rabbits; settings: for Serum total cholesterol, % change compared to control group: rabbit p.o., 5 mg/kg per day (constant)
Method: 4) Hypocholesterolemic activity in rabbits after p.o. administration
Normolipemic male white New Zealand rabbits, body weight 3-3.5 kg, were divided into groups of 5 animals. The groups in each case received one of the test compounds (sodium salts of the compounds of the formula II), suspended in 1% aqueous methylcellulose (®Tylose MH 300), 5.10 or 20 mg/kg/day daily in the morning by stomach tube. The animals of the control groups received only Tylose MH 300. Every 3-4 days samples of venous blood were taken from all animals 20 hours after the oral administration. The serum total cholesterol was determined enzymatically in these samples using the test combination of Boehringer Mannheim (CHOD-PAP high performance method). The serum cholesterol level of the treated animals was compared with that of the control groups. A "discharge phase" followed the 20-day "treatment phase", in which the change in the serum cholesterol level was further monitored.

[3] = tested on: microsomal lipid peroxidation; test: Inhibition of microsomal lipid peroxidation (in vitro); format: biochemical; settings: 10^-5 mol/l
Method: 5) Inhibition of microsomal lipid peroxidation (in vitro)
The inhibition of lipid peroxidation was measured under the experimental conditions described by H. Wafers and H. Sies, Eur. J. Biochem. 174, 353-357 (1988). The microsomes were obtained according to the literature cited therein. IC50 denotes the concentration of the test compound in moles per liter which causes a 50% inhibition of lipid peroxidation.

HMG-CoA reductase = biological target: T1, HMG-CoA reductase (Rattus norvegicus, UniProt P51639); test: Inhibition of HMG-CoA reductase activity in solubilized enzyme preparations from rat liver microsomes; format: biochemical; settings: sodium salts of the dihydroxycarboxylic acids; mean of 3 parallel samples; read-out: IC50 (molar concentration necessary for a 50% inhibition)
T1 construct: solubilized enzyme preparations from liver microsomes of rats; from tissue; host or cells: rat liver microsomes (cholestyramine-induced rats), solubilized
T1 sequence (P51639 1-887): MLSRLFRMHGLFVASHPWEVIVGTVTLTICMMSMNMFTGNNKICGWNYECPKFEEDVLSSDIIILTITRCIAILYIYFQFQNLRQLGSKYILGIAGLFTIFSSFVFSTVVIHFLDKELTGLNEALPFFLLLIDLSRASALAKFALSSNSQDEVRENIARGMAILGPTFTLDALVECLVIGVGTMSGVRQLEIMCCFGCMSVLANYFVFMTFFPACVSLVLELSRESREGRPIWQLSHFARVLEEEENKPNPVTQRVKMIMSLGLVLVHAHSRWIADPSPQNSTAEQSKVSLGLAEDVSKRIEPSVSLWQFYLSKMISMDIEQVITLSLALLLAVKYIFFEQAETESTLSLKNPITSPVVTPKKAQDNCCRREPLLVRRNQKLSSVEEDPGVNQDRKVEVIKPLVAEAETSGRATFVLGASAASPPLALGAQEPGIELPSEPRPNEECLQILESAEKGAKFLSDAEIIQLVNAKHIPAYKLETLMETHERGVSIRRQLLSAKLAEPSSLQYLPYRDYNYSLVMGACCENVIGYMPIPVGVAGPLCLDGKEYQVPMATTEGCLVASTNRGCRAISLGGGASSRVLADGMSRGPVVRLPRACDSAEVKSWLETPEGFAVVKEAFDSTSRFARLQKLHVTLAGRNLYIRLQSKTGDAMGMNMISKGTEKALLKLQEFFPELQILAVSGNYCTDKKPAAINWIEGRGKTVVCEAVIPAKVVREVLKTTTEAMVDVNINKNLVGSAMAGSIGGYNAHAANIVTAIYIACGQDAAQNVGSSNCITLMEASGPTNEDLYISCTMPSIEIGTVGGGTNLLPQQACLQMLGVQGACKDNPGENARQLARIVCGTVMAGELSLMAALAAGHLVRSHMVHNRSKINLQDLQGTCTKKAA
Method: 1) Inhibition of HKG-CoA reductase activity in solubilized enzyme preparations from rat liver microsomes
HMG-CoA reductase activity was measured on solubilized enzyme preparations from liver microsomes of rats which had been induced by conversion into the day/night rhythm using cholestyramine (®Cuemid). (S,R)^14 C-HMG-CoA was used as a substrate, and the concentration of NADPH was maintained during the incubation by a regenerating system. The separation of ^14 C-mevalonate from substrate and other products (for example ^14 C-HMG) was carried out by column elution, the elution profile of each individual sample being determined. The regular addition of ^3 H-mevalonate was avoided as the determination gives the data relative to the inhibitory action. The enzyme-free control, the enzyme-containing normal mixture (=100%) and those containing preparation additives were in each case treated together in one series of experiments. The sodium salts of the dihydroxycarboxylic acids of the formula II were always employed as the preparation in this test. Each individual value was formed as the mean value of 3 parallel samples. The significance of the mean value differences between preparation-free and preparation-containing samples was evaluated by the t-test.

[4] = 30 mg/kg daily by stomach tube, 7 administrations

Structure (SMILES)	IC50 (LDL [1]) [nM]	IC50 (HEP G2 cells) [nM]	IC70 (HEP G2 cells) [nM]	Relative potency in % (HEP G2 cells) [%]	Relative potency in % (value in parentheses) (HEP G2 cells) [%]	Serum total cholesterol, % change compared to control group (serum total cholesterol; administration 3) [%]	Serum total cholesterol, % change compared to control group (serum total cholesterol; administration 10) [%]	Serum total cholesterol, % change compared to control group (serum total cholesterol; administration 14) [%]	Serum total cholesterol, % change compared to control group (serum total cholesterol; discharge phase 3) [%]	Serum total cholesterol, % change compared to control group (serum total cholesterol; discharge phase 6) [%]	Serum total cholesterol, % change compared to control group (serum total cholesterol; discharge phase 11)	Inhibition at 10^-5 mol/l [3] [%]	IC50 (HMG-CoA reductase) [nM]	further results
CC(C)(Sc1cc(C(C)(C)C)c(O)c(C(C)(C)C)c1)Sc1cc(C(C)(C)C)c(O)c(C(C)(C)C)c1 [probucol, reference compound]	500	–	–	–	–	–	–	–	–	–	–	–	–	oxidative modification of LDL in vivo (LDL [2]): prevents oxidative modification of LDL; biliary cholesterol excretion (LDL [2]; in vivo): increases biliary cholesterol excretion; lowering of LDL and HDL (LDL [2]; in vivo): lowers both LDL and HDL; plasma cholesterol-lowering action compared with a potent cholesterol biosynthesis inhibitor (such as mevinolin) (LDL [2]; in vivo): only poorly pronounced; rate of catabolism of LDL (LDL [2]; in vivo): increases the rate of catabolism of LDL; Body weight, % changes in the mean value relative to starting (serum lipoproteins; [4]): +5%; Glycerol VLDL, % change compared to control (serum lipoproteins; [4]): +24%; Liver weight, % changes in the mean value relative to control (serum lipoproteins; [4]): +5%; Protein LDL, % change compared to control (serum lipoproteins; [4]): -23%; Protein VLDL, % change compared to control (serum lipoproteins; [4]): -6%; Total cholesterol HDL, % change compared to control (serum lipoproteins; [4]): -11%; Total cholesterol LDL, % change compared to control (serum lipoproteins; [4]): -24%; Total cholesterol VLDL, % change compared to control (serum lipoproteins; [4]): +4%; Cholesterol HDL/LDL (serum lipoproteins; 30 mg/kg daily, control standardization to 1.00): 0.97
CC(C)c1cc(Sc2ccc(F)cc2)cc(-c2ccc(F)cc2)c1OC[C@@H](O)C[C@@H](O)CC(=O)O [Example 1]	> 10000	4.3	~0.8	1163	18750	-44	-46	-43	-22	-17	-6%	< 10	6	onset of action / maximum action (serum total cholesterol; Table 4): commences very early on. The maximum action was virtually achieved even in the first measurement after 3 days of treatment; plasma cholesterol decrease compared with mevinolin and compound C (serum total cholesterol; Table 4, lower dosage): substantially greater plasma cholesterol decrease than mevinolin or the compound C in spite of lower dosage; Serum total cholesterol, % change compared to control group (serum total cholesterol; administration 17): -42%; Serum total cholesterol, % change compared to control group (serum total cholesterol; administration 20): -48%; Inhibition at 10^-5 M (LDL [1]; 10^-5 M): 41%
CC(C)c1c(OC[C@@H](O)C[C@@H](O)CC(=O)O)c(C(C)C)c(C(C)C)c(O)c1-c1ccc(F)cc1 [Example 9]	6000	7.5	12	667	1250	-8	-12	-15	-4	-4	+6%	< 10	4	–
